Consider 16 compounds from patent US4667020A, “Aromatic disazo dyes and liquid-crystalline materials containing these dyes” (BASF Aktiengesellschaft, priority 1984, dated 1987).

Data set [1] can be described thus: degree of order S in liquid crystal mixture. Type of data set: physicochemical. The method, then: (§1) The degree of order S measured at room temperature, the solubility L, likewise determined at room temperature, and the Merck liquid crystal mixtures used are summarized in Table 1 for the Examples 1, 2 and 4-12.
The degree of order S was determined in commercial measuring cells with a homogeneous edge orientation, using the known equation [formula] (polyimide). The dichroic ratio CR was determined by measuring the extinctions E.parallel. (measurement with light polarized parallel to the preferred direction of the nematic phase) and E.perp. (measurement with light polarized at right angles to the preferred direction of the nematic phase) and using the relationship [formula] the dye concentration being chosen so that E.parallel. was from 1 to 2. The measurements were carried out on a Beckmann Acta CIII spectrophotometer.

Data set [2] is described as follows: solubility L in liquid crystal mixture. It counts as physicochemical. The conditions noted are these: 1 week stirring. The method, then:
as §1
The solubility was determined as follows:
50 mg of the particular dye were stirred in 1 ml of liquid-crystalline mixture for 1 week at room temperature, the saturated solution was separated from the residue by centrifuging, and the solubility was determined by comparison of the extinctions.

Where [3] appears, read: liquid crystal mixture ZLI 1957/5.
Where [4] appears, read: liquid crystal mixture ZLI 1840.
[5] abbreviates: liquid crystal mixture ZLI 2452.

The structures appear in SMILES notation. Where only a bound is given, the exact number is not on record here.

On to `CCCCC(CC)c1nnc(-c2ccc(N=Nc3ccc(N=Nc4ccc(N(C)CCCC)cc4)c4ccccc34)cc2)o1` (stereo not drawn) [Example 11], for which the “Degree of order S (at room temp.)” value in data set [1] (setting [3]) amounted to 0.74. Further, in data set [2] (setting [3]), the “Solubility L (at room temp.)” value was over 5%.

Turning to `CCCCCCCCSc1nnc(-c2ccc(N=Nc3ccc(N=Nc4ccc(N(C)CCCC)cc4)c4ccccc34)cc2)s1` [Example 14], in data set [1] (setting [3]), the “Degree of order S (at room temp.)” value is reported as 0.77. In addition, in data set [2] (setting [3]), the “Solubility L (at room temp.)” value came out at 0.7%.

As to `Cc1cc(N=Nc2ccc(N(C)C)cc2)c(C)cc1N=Nc1ccc(-c2nnc(SCc3ccccc3)s2)cc1` [Example 4], the “Degree of order S (at room temp.)” value in data set [1] (setting [4]) worked out at 0.78. For the same compound, in data set [2] (setting [4]), the “Solubility L (at room temp.)” value is reported as under 0.2%.

For `CCCCc1nnc(-c2ccc(N=Nc3cc(C)c(N=Nc4ccc(N(C)CCCC)cc4)cc3C)cc2)o1` [Example 5], the “Degree of order S (at room temp.)” value in data set [1] (setting [4]) and in data set [1] (setting [3]) was 0.73 each time. Besides, the “Solubility L (at room temp.)” value in data set [2] (setting [4]) is 1.4%; in data set [2] (setting [3]) it was 1.3%.

As to `CCCCC(CC)CSc1nnc(-c2ccc(N=Nc3ccc(N=Nc4ccc(N(C)CCCC)cc4)c4ccccc34)cc2)s1` (stereo not drawn) [Example 15], the “Degree of order S (at room temp.)” value in data set [1] (setting [5]) stood at 0.8. Also, the “Solubility L (at room temp.)” value in data set [2] (setting [5]) was over 5%.

With `CCCCc1nnc(-c2ccc(N=Nc3cc(C)c(N=Nc4ccc(OCc5ccc(C6CCC(CC)CC6)cc5)cc4C)cc3C)cc2)o1` (stereo not drawn) [Example 1], the “Degree of order S (at room temp.)” value in data set [1] (setting [4]) and in data set [1] (setting [3]) was 0.76 throughout. For the same compound, the “Solubility L (at room temp.)” value worked out at 1.6% in data set [2] (setting [4]) and 1.3% in data set [2] (setting [3]).

On to `CCCCCCCC(C)Sc1nnc(-c2ccc(N=Nc3ccc(N=Nc4ccc(OCc5ccc(C6CCC(CCCC)CC6)cc5)cc4C)c4ccccc34)cc2)s1` (stereo not drawn) [Example 19], for which the “Degree of order S (at room temp.)” value in data set [1] (setting [3]) was 0.77; in data set [1] (setting [5]), 0.84. In addition, the “Solubility L (at room temp.)” value in data set [2] (setting [3]) and in data set [2] (setting [5]) was over 5% each time.

On to `CCCCSc1nnc(-c2ccc(N=Nc3ccc(N=Nc4ccc(N(C)C)cc4)c4ccccc34)cc2)s1` [Example 8], for which the “Degree of order S (at room temp.)” value in data set [1] (setting [4]) stood at 0.76; in data set [1] (setting [3]) it was 0.78. In addition, the “Solubility L (at room temp.)” value in data set [2] (setting [4]) turned out to be 1.3%; in data set [2] (setting [3]) it was 0.5%.

For the compound `CCCCSc1nnc(-c2ccc(N=Nc3ccc(N=Nc4ccc(N(C)CCCC)cc4)c4ccccc34)cc2)s1` [Example 9], the entries for the “Degree of order S (at room temp.)” value in data set [1] (setting [4]) and in data set [1] (setting [3]) were 0.79 and 0.77, respectively. The “Solubility L (at room temp.)” value in data set [2] (setting [4]) came out at 0.6%; in data set [2] (setting [3]), 0.3%.

As for `CCCCc1nnc(-c2ccc(N=Nc3ccc(N=Nc4ccc(N(C)CCCC)cc4)c4ccccc34)cc2)o1` [Example 10], in data set [1] (setting [3]), the “Degree of order S (at room temp.)” value is on record as 0.74. The “Solubility L (at room temp.)” value in data set [2] (setting [3]) was 1.2%.

On to `CCCCC(CC)c1nnc(-c2ccc(N=Nc3ccc(N=Nc4ccc(NCC)c5ccccc45)c4ccccc34)cc2)o1` (stereo not drawn) [Example 12], for which, in data set [1] (setting [3]), the “Degree of order S (at room temp.)” value was found to be 0.71. The “Solubility L (at room temp.)” value in data set [2] (setting [3]) came out at 0.8%.

As to `CCCCCCCC(C)Sc1nnc(-c2ccc(N=Nc3ccc(N=Nc4ccc(N(C)CCCC)cc4)c4ccccc34)cc2)s1` (stereo not drawn) [Example 16], the “Degree of order S (at room temp.)” value in data set [1] (setting [5]) came to 0.81. Moreover, the “Solubility L (at room temp.)” value in data set [2] (setting [5]) is given as over 5%.

`CCOC(=O)c1sc(-c2ccc(N=Nc3ccc(N=Nc4ccc(N(C)C)cc4)c4ccccc34)cc2)nc1C` [Example 7]: the “Degree of order S (at room temp.)” value in data set [1] (setting [4]) is reported as 0.74. For the same compound, the “Solubility L (at room temp.)” value in data set [2] (setting [4]) is reported as 1.4%.

For `CCCCSc1nnc(-c2ccc(N=Nc3cc(C)c(N=Nc4ccc(N(C)CCCC)cc4)cc3C)cc2)s1` [Example 2], the “Degree of order S (at room temp.)” value in data set [1] (setting [3]) was 0.74. In data set [2] (setting [3]), the “Solubility L (at room temp.)” value is reported as 1.1%.

On to `CCCCC(CC)c1nnc(-c2ccc(N=Nc3cc(C)c(N=Nc4ccc(N(C)CCCC)cc4)cc3C)cc2)o1` (stereo not drawn) [Example 6], for which the “Degree of order S (at room temp.)” value in data set [1] (setting [3]) is 0.68. Also, the “Solubility L (at room temp.)” value in data set [2] (setting [3]) is reported as over 5%.

As for `CCCCC1CCC(c2ccc(COc3ccc(N=Nc4ccc(N=Nc5ccc(-c6nnc(SCC(CC)CCCC)s6)cc5)c5ccccc45)c(C)c3)cc2)CC1` (stereo not drawn) [Example 18], the “Degree of order S (at room temp.)” value in data set [1] (setting [5]) was determined as 0.82. In data set [2] (setting [5]), the “Solubility L (at room temp.)” value is 3.1%.
